# Measured values: patent US20070037788A1, “Tricyclic steroid hormone nuclear receptor modulators” (Eli Lilly and Company, priority 2003, published 2007)
# Molecular target: T1, human MR (Homo sapiens, UniProt P08235)
# T1 construct: The full length human MR gene is cloned from a human kidney or human brain cDNA library; made in house; host or cells: SF9 insect cells (baculovirus)
# T1 sequence (P08235 1-984): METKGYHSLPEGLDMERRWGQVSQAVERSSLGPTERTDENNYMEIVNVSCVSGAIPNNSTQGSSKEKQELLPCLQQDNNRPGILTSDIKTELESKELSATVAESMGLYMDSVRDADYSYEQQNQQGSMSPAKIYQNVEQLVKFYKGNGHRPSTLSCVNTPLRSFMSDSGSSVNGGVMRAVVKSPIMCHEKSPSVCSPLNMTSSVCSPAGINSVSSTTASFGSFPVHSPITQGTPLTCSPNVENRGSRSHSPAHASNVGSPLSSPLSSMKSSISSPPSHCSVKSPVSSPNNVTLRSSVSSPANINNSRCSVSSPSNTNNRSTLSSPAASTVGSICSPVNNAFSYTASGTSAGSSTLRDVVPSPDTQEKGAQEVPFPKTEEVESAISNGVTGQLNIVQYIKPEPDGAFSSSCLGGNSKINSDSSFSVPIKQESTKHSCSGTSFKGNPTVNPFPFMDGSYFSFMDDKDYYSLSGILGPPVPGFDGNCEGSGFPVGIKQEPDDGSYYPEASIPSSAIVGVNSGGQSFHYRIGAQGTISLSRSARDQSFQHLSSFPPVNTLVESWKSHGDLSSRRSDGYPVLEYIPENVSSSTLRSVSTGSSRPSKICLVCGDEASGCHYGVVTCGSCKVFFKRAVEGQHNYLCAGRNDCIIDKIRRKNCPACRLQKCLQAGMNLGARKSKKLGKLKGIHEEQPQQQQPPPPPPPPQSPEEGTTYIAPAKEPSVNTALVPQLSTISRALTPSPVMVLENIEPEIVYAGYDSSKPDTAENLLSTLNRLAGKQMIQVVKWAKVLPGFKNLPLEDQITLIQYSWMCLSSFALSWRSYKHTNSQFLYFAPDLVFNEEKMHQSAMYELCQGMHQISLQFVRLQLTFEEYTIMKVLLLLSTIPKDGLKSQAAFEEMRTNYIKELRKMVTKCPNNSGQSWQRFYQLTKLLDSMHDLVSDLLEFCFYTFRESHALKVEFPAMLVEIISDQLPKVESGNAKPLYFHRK
# Test: Mineralocorticoid Receptor Binding Assay (Method 1)
# Conditions: [3H]-aldosterone
# Protocol: The full length human MR gene is cloned from a human kidney or human brain cDNA library. Briefly, using synthetic oligonucleotide primers (Eli Lilly and Company, Indianapolis) directed to nucleotides 20-54 and 3700-3666 of the human MR, polymerase chain reaction (PCR) is performed under standard conditions using a human cDNA library. The PCR reaction is performed in a final volume of 50 μl containing about 1 μl of a 50× stock solution of polymerase; about 1 μl of a 50× stock solution of DNTP; about 5 μl of an appropriate PCR buffer; about 1 μl of each primer; about 5 μl of a H. kidney or H. brain cDNA library; and about 36 μl of water. The reaction is allowed to denature for about 30 seconds at 95 degrees Celsius, anneal for about 30 seconds at 55 degrees Celsius, and extend for about 5 minutes at 72 degrees Celsius, the sequence being repeated for a total of about 35 cycles. The desired PCR product (3.68 Kb) is confirmed by gel electrophoresis and subsequently cut from the gel and stored at about −20 degrees Celsius until extraction. To extract the cDNA product from the agarose gel, the QIAEX II Gel Extraction protocol (QIAGEN, Inc.) is employed according to the manufacturer's instructions. Following extraction, the MR cDNA is cloned into an appropriate cloning vector (Zero Blunt TOPO PCR Cloning Kit (Invitrogen, Inc.) and a pAcHLT-baculovirus transfer vector (B.D./Pharminogen), then expressed in SF9 insect cells, essentially according to manufacturer's instructions. Sf9 cells are grown at a scale where gram quantity cell pellets are obtained for subsequent use in the MR binding assay. Harvested cell pellets are lysed by repeated freeze-thaw cycles (about 4) in a suitable lysis buffer then centrifuged at about 1×10^3 G (with the supernatant being saved for future assays).
# MR binding assays are performed in a final total volume of about 250 μl containing about 20-25 μg of protein and 0.5 nM of [^3H]-aldosterone plus varying concentrations of test compound or vehicle. The assay binding buffer consists of 30 mM sodium molybdate, 30 mM of TRIS-HCl, 5 mM sodium phosphate, 5 mM sodium pyrophosphate, and about 10% glycerol, pH=7.5.
# Briefly, assays are prepared at RT in 96-well Falcon 3072 plates, each well containing 210 μl of binding buffer, 10 μl of [^3H]-aldosterone, 10 μl of test compound/vehicle, and 20 μl of the resuspended receptor protein extract. Incubations are carried out at 4 degrees Celsius with shaking for about 16 hours. 200 μl aliquots of each incubation are filtered onto Millipore HA 0.45 micron 96-well filter plates, pre-moistened with cold 30 mM TRIS-HCl. The filter plates are suctioned dry with vacuum and immediately washed 3× with cold 30 mM TRIS-HCl. The plates are then punched out and the amount of receptor-ligand complex is determined by liquid scintillation counting using 4 ml of Ready Protein Plus™ liquid scintillation cocktail.
row,Ki,Compound
1,< 500 nM,CCN1CC[C@H](n2c(=O)[nH]c3cc(/C=C4/c5ccc(F)cc5OCc5c(F)cccc54)ccc32)C1 [Example 44]
2,< 500 nM,CN1CC[C@H](n2c(=O)[nH]c3cc(/C=C4/c5ccc(F)cc5OCc5c(F)cccc54)ccc32)C1 [Example 45]
3,< 500 nM,CCN1CC[C@@H](n2c(=O)[nH]c3cc(/C=C4/c5ccc(F)cc5OCc5c(F)cccc54)ccc32)C1 [Example 46]
